Columns and labels:
[1] = tested on: spontaneously hypertensive rats; assay: Antihypertensive efficacy test in spontaneously hypertensive rats: systolic blood pressure change; assay type: in vivo, rat; conditions: SHR; for antihypertensive effect compared with the corresponding unsalted compound: oral administration; for antihypertensive effect compared with the corresponding unsalted compound / systolic blood pressure compared with the control group: result in words; for systolic blood pressure compared with the control group: after 3 hours of administration; for Systolic blood pressure change, 1 hour after administration (average ± standard error) / Systolic blood pressure change, 3 hours after administration (average ± standard error) / Systolic blood pressure change, 5 hours after administration (average ± standard error) / Systolic blood pressure change, 7 hours after administration (average ± standard error) / Systolic blood pressure change, 10 hours after administration (average ± standard error) / Systolic blood pressure change, 24 hours after administration (average ± standard error): intragastric, 1 mg/kg (calculated by effective dose of Azilsartan), relative to before administration
Experimental: (§1) 12-week-old spontaneously hypertensive rats (hereinafter referred to as SHR, purchased from Beijing Weitong Lihua Experimental Animal Technology Co., Ltd.) were anesthetized with 2.5% sodium pentobarbital for intraperitoneal injection. After that, the blood pressure sensing catheter of hypertension implant was inserted into their abdominal aorta, while the implant was fixed to the abdominal wall, and then postoperative daily care was performed after suturing. Rats with systolic blood pressure exceeding 160 mm Hg were divided into 3 groups (control group, QR01019 group and QR01019K group) wherein each group has 8 rats. The control group was administrated 0.5% sodium carboxymethylcellulose (hereinafter referred to as CMC-Na); QR01019 group and QR01019K group were respectively administered, both of which were dissolved by 0.5% CMC-Na, by intragastric administration, at a dose of 1 mg/kg (calculated by the effective dose of Azilsartan) and a volume calculated by 4 mL/kg. The systolic blood pressure and heart rate of SHR were compared before and after administration (the systolic blood pressure and heart rate of SHR before administration as reference value), which were detected three times at each time point with the average value recorded.

[2] = tested on: spontaneously hypertensive rats; assay: Heart rate change in spontaneously hypertensive rats; assay type: in vivo, rat; conditions: SHR; for heart rate lowering effect compared with the corresponding unsalted compound: oral administration, result in words; for Heart rate change, 1 hour after administration (average ± standard error) / Heart rate change, 3 hours after administration (average ± standard error) / Heart rate change, 5 hours after administration (average ± standard error) / Heart rate change, 7 hours after administration (average ± standard error) / Heart rate change, 10 hours after administration (average ± standard error) / Heart rate change, 24 hours after administration (average ± standard error): intragastric, 1 mg/kg (calculated by effective dose of Azilsartan), relative to before administration
Experimental: as §1

Row | Structure (SMILES) | antihypertensive effect compared with the corresponding unsalted compound [1] | heart rate lowering effect compared with the corresponding unsalted compound [2] | further results
1 | CCOc1nc2cccc(C(=O)OCOC(=O)C(C)(C)C)c2n1Cc1ccc(-c2ccccc2-c2noc(=O)[n-]2)cc1.[K+] [QR01005K] | more potent and longer-lasting | more potent and longer-lasting | 
2 | CCOc1nc2cccc(C(=O)OCCCCO[N+](=O)[O-])c2n1Cc1ccc(-c2ccccc2-c2noc(=O)[n-]2)cc1.[K+] [QR01008K] | more potent and longer-lasting | more potent and longer-lasting | 
3 | CCOc1nc2cccc(C(=O)OCc3c(-c4ccccc4)no[n+]3[O-])c2n1Cc1ccc(-c2ccccc2-c2noc(=O)[n-]2)cc1.[K+] [QR01009K] | more potent and longer-lasting | more potent and longer-lasting | 
4 | CCOc1nc2cccc(C(=O)OCCCCOc3no[n+]([O-])c3S(=O)(=O)c3ccccc3)c2n1Cc1ccc(-c2ccccc2-c2noc(=O)[n-]2)cc1.[K+] [QR01011K] | more potent and longer-lasting | more potent and longer-lasting | 
5 | CCOc1nc2cccc(C(=O)OCc3oc(=S)oc3C)c2n1Cc1ccc(-c2ccccc2-c2noc(=O)[n-]2)cc1.[K+] [QR01013K] | more potent and longer-lasting | more potent and longer-lasting | 
6 | CCOc1nc2cccc(C(=O)OCOC(=O)OCc3nc(C)c(C)nc3C)c2n1Cc1ccc(-c2ccccc2-c2noc(=O)[n-]2)cc1.[K+] [QR01017K] | more potent and longer-lasting | more potent and longer-lasting | 
7 | CCOc1nc2cccc(C(=O)OC(C)OC(=O)OCc3nc(C)c(C)nc3C)c2n1Cc1ccc(-c2ccccc2-c2noc(=O)[n-]2)cc1.[K+] (stereo not drawn) [QR01019K] | more potent with a longer-lasting antihypertensive effect | more potent with a longer-lasting heart rate lowing effect | systolic blood pressure compared with the control group [1]: significantly decreased; Systolic blood pressure change, 1 hour after administration (average ± standard error) [1]: −7.0 ± 3.4 mmHg; Systolic blood pressure change, 3 hours after administration (average ± standard error) [1]: −34.3 ± 1.9 mmHg; Systolic blood pressure change, 5 hours after administration (average ± standard error) [1]: −46.5 ± 2.5 mmHg; Systolic blood pressure change, 7 hours after administration (average ± standard error) [1]: −49.4 ± 4.1 mmHg; Systolic blood pressure change, 10 hours after administration (average ± standard error) [1]: −45.3 ± 3.3 mmHg; Systolic blood pressure change, 24 hours after administration (average ± standard error) [1]: −25.9 ± 3.4 mmHg; Heart rate change, 1 hour after administration (average ± standard error) [2]: −3.6 ± 2.4 times/minute; Heart rate change, 3 hours after administration (average ± standard error) [2]: −5.0 ± 2.5 times/minute; Heart rate change, 5 hours after administration (average ± standard error) [2]: −10.1 ± 3.0 times/minute; Heart rate change, 7 hours after administration (average ± standard error) [2]: −17.5 ± 3.0 times/minute; Heart rate change, 10 hours after administration (average ± standard error) [2]: −25.4 ± 2.4 times/minute; Heart rate change, 24 hours after administration (average ± standard error) [2]: −28.6 ± 8 times/minute
8 | CCOc1nc2cccc(C(=O)OC(C)OC(=O)OCc3nc(C)c(C)nc3C)c2n1Cc1ccc(-c2ccccc2-c2noc(=O)[nH]2)cc1 (stereo not drawn) [QR01019] |  |  | systolic blood pressure compared with the control group [1]: significantly decreased; Systolic blood pressure change, 1 hour after administration (average ± standard error) [1]: −4.9 ± 4.8 mmHg; Systolic blood pressure change, 3 hours after administration (average ± standard error) [1]: −22.0 ± 3.6 mmHg; Systolic blood pressure change, 5 hours after administration (average ± standard error) [1]: −30.5 ± 3.5 mmHg; Systolic blood pressure change, 7 hours after administration (average ± standard error) [1]: −38.8 ± 2.3 mmHg; Systolic blood pressure change, 10 hours after administration (average ± standard error) [1]: −33.0 ± 1.7 mmHg; Systolic blood pressure change, 24 hours after administration (average ± standard error) [1]: −10.2 ± 2.1 mmHg; Heart rate change, 1 hour after administration (average ± standard error) [2]: −3.4 ± 2.6 times/minute; Heart rate change, 3 hours after administration (average ± standard error) [2]: −2.33 ± 2.6 times/minute; Heart rate change, 5 hours after administration (average ± standard error) [2]: −6.5 ± 2.8 times/minute; Heart rate change, 7 hours after administration (average ± standard error) [2]: −6.2 ± 3.0 times/minute; Heart rate change, 10 hours after administration (average ± standard error) [2]: −12.3 ± 2.8 times/minute; Heart rate change, 24 hours after administration (average ± standard error) [2]: −6.7 ± 2.6 times/minute
9 | CCOc1nc2cccc(C(=O)OCOC(=O)OCc3no[n+]([O-])c3C)c2n1Cc1ccc(-c2ccccc2-c2noc(=O)[n-]2)cc1.[K+] [QR01020K] | more potent and longer-lasting | more potent and longer-lasting | 
10 | CCOc1nc2cccc(C(=O)OCc3no[n+]([O-])c3C)c2n1Cc1ccc(-c2ccccc2-c2noc(=O)[n-]2)cc1.[K+] [QR01023K] | more potent and longer-lasting | more potent and longer-lasting | 
11 | CCOc1nc2cccc(C(=O)OCc3no[n+]([O-])c3C(C)(C)C)c2n1Cc1ccc(-c2ccccc2-c2noc(=O)[n-]2)cc1.[K+] [QR01026K] | more potent and longer-lasting | more potent and longer-lasting | 
12 | CCOc1nc2cccc(C(=O)OCOC(=O)OCc3ccno3)c2n1Cc1ccc(-c2ccccc2-c2noc(=O)[n-]2)cc1.[K+] [QR01030K] | more potent and longer-lasting | more potent and longer-lasting | 
13 | CCOc1nc2cccc(C(=O)OCOC(=O)OCc3cn(C)cn3)c2n1Cc1ccc(-c2ccccc2-c2noc(=O)[n-]2)cc1.[K+] [QR01031K] | more potent and longer-lasting | more potent and longer-lasting | 
14 | CCOc1nc2cccc(C(=O)OCOC(=O)OCc3ccn(C)c3)c2n1Cc1ccc(-c2ccccc2-c2noc(=O)[n-]2)cc1.[K+] [QR01032K] | more potent and longer-lasting | more potent and longer-lasting | 
15 | CCOc1nc2cccc(C(=O)OC(C)OC(=O)OCc3ccn(C)c3)c2n1Cc1ccc(-c2ccccc2-c2noc(=O)[n-]2)cc1.[K+] (stereo not drawn) [QR01033K] | more potent and longer-lasting | more potent and longer-lasting | 
16 | CCOc1nc2cccc(C(=O)OCc3no[n+]([O-])c3CO[N+](=O)[O-])c2n1Cc1ccc(-c2ccccc2-c2noc(=O)[n-]2)cc1.[K+] [QR01034K] | more potent and longer-lasting | more potent and longer-lasting | 
17 | CCOc1nc2cccc(C(=O)OC3CCc4c3no[n+]4[O-])c2n1Cc1ccc(-c2ccccc2-c2noc(=O)[n-]2)cc1.[K+] (stereo not drawn) [QR01035K] | more potent and longer-lasting | more potent and longer-lasting | 
18 | CCOc1nc2cccc(C(=O)OCc3no[n+]([O-])c3C#N)c2n1Cc1ccc(-c2ccccc2-c2noc(=O)[n-]2)cc1.[K+] [QR01036K] | more potent and longer-lasting | more potent and longer-lasting | 
